Assay results from patent US11331368B2, “Angiotensin receptor agonists and uses thereof” (Monash University, priority 2017, dated 2022).

How the values were obtained:
human AT1R = biological target: T1, human AT1R (Homo sapiens, UniProt P30556); test: Competition radioligand binding (125I-Sar1-Ile8-AngII) in AT1R-transfected HEK-293 cells
T1 construct: expressed in transfected cells
T1 sequence (P30556 1-359): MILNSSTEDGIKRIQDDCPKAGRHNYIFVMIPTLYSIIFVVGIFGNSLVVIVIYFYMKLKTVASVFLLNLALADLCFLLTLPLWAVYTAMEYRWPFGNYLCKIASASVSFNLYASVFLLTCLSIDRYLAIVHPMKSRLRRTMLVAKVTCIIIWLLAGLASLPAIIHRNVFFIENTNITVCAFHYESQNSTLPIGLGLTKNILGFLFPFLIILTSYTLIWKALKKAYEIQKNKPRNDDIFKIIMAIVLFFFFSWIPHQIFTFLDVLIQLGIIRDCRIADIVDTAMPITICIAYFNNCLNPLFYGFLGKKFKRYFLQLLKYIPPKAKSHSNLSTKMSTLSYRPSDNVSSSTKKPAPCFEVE
Method: This will lead to the generation of IC50 values that determine the relative ability of test compounds to interact with both Angiotensin receptors.
Cells were grown to approximately 80% confluence before being re-plated into 48 well plates at 1×10^5 cells/well and grown for 48 hours at 37° C. for a whole cell competition binding assay. [125I]-Sar1Ile8Ang II at 50,000 cpm, incubated for 45 minutes at 37° C., in the absence or presence of unlabeled ligands, prepared in binding buffer (DMEM, 0.1% BSA), were used in the competition assays at concentrations ranging from 1 μM to 10 μM. For each experiment, each ligand concentration was tested in duplicate or triplicate, and each experiment was repeated at least 3 separate times. […] The ability of each ligand to inhibit specific binding of [125I]-Sar1Ile8Ang II was measured on a gamma counter with all counts corrected for NSB.

mouse aortae = test: Vasorelaxation of pre-contracted mouse aortae; settings: 0.1-1000 nM, pre-contracted with U46619
Source text: FIG. 17: The selective AT2R ligands, β-Pro^7-Ang III and D-Arg^2-β-Pro^7-Ang III, are functional agonists in vasculature.

[1] = tested on: male FVB/N mice on high salt diet, heart; test: High salt (5%) diet intervention model, heart; format: in vivo, mouse
Method in brief: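 Male FVB/N mice fed 5% salt diet for 8 weeks (controls 0.35% NaCl); from week 4, AT2R agonist at 75 pmol/kg/min or saline given subcutaneously by osmotic minipump for 4 weeks on continued high salt. Heart collagen by picrosirius red, % interstitial staining averaged over eight fields; immunofluorescence for fibrosis/inflammation markers.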

[2] = tested on: stroke-prone spontaneously hypertensive rats (SHRSP); test: Stroke-prone spontaneously hypertensive rats (SHRSP), 4-week infusion; format: in vivo, rat; settings: 75 pmol/kg/min s.c. for 4 weeks
Method: FIG. 27: AT2R stimulation by β-Pro^7-Ang III attenuates cardiac fibrosis in stroke-prone spontaneously hypertensive rats (SHRSP). Mean data for cardiac fibrosis determined by picrosirius red staining of transverse heart sections, under bright field microscopy, taken from ˜25-week old, male stroke-prone spontaneously hypertensive rats (SHRSP) that received either saline or β-Pro^7-Ang III (75 pmol/kg/min subcutaneously via osmotic mini-pump) for 4 weeks (n=3-4). Data expressed as mean±s.e.m of percentage positive stained area for fibrosis. **P<0.01 versus saline (unpaired t-test).
For the first time, β-Pro^7-Ang III was tested at the same dose, duration and route of administration (75 pmol/kg/min subcutaneously via osmotic mini-pump for 4 weeks) in adult male stroke-prone spontaneously hypertensive rats (SHRSP).

Arg-Val-Tyr-Ile-His-β-Pro-Phe [βPro-Ang III]
binding at AT1R (displacement of 125I-Sar1-Ile8-AngII), in words (human AT1R): bind poorly | vasorelaxation of pre-contracted aortae (mouse aortae): concentration-dependent vasorelaxation | myofibroblast differentiation in heart (α-SMA) ([1]; 75 pmol/kg/min s.c., weeks 5-8): fully reversed the high salt-induced myofibroblast differentiation | cardiac fibrosis (picrosirius red) ([1]; weeks 5-8 of high salt diet, peptides 75 pmol/kg/min s.c. mini-pump, Cand 2 mg/kg/day, captopril 3 mg/kg/day in drinking water): reversed established cardiac fibrosis | SBP in SHRSP [2]: did not affect SBP | cardiac fibrosis (picrosirius red) in SHRSP [2]: significantly reduced cardiac fibrosis
